In general, IC50 refers to the point on the concentration scale where inhibition reaches its midpoint. Read a high IC50 as weaker potency.

This assay concerns the target T1, Human neutrophil elastase (Homo sapiens, UniProt P08246).
T1 construct: purchased Calbiochem 324681
T1 sequence (P08246 30-267): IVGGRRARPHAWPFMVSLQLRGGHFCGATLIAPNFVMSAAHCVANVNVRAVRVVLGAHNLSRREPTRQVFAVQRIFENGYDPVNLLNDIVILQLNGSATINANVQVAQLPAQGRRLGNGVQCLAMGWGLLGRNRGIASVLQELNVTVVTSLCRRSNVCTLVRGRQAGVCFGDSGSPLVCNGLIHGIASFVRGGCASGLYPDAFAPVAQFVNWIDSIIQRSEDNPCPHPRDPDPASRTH
Nature of the assay: Human Neutrophil Elastase Assay. It counts as biochemical. The following applies: substrate MeOSuc-Ala-Ala-Pro-Val-AMC 250 μM, pH 7.5, fluorescence. As to the method:
Human Neutrophil Elastase Assay
Materials: Human neutrophil elastase was purchased from Calbiochem (Cat. No.: 324681) and the elastase substrate MeOSuc-Ala-Ala-Pro-Val-AMC from Bachem (Cat. No.: 1-1270). All other materials were of the highest grade commercially available. The following buffers were used: Compound buffer: 100 mM Tris, 500 mM NaCl, adjusted to pH 7.5; Assay buffer: 100 mM Tris, 500 mM NaCl, adjusted to pH 7.5, containing 0.01% BSA. Assay conditions: Test compounds were prediluted in DMSO and subsequently in compound buffer (5% DMSO final). 5 μL of these compound dilutions were mixed with 10 μl Neutrophil elastase (9 ng/ml in assay buffer) in a black 384 well OptiPlate (Perkin Elmer, Cat No.: 6007270) and incubated for 15 min at room temperature. Subsequently 10 μL substrate solution in assay buffer were added (250 μM final concentration) and the plates were incubated for 60 min at room temperature. After inactivation of the enzyme, fluorescence intensities were measured at 380 nm excitation and 460 nm emission wavelengths. Each plate contains wells with a high value control (DMSO+enzyme+substrate) and wells with a low value control (DMSO+inactivated enzyme+substrate). IC50 values were estimated using a sigmoidal concentration response curve with variable slope. Means of low values were taken as 0%, means of high values as 100%.
Molecule `Cc1c(-c2ccnn2C)cc(C(=O)NCc2ccc(S(C)(=N)=N)cc2)c(=O)n1-c1cccc(C(F)(F)F)c1` [Example 14, 6-Methyl-5-(2-methylpyrazol-3-yl)-N-[[4-(methylsulfonodiimidoyl)phenyl]methyl]-2-oxo-1-[3-(trifluoromethyl)phenyl]pyridine-3-carboxamide] had an IC50 of 261 nM.

Molecule `Cc1c(-c2ccnn2C)cc(C(=O)NCc2ccc(S(C)(=N)=O)cc2)c(=O)n1-c1cccc(C(F)(F)F)c1` (single isomer, unassigned) [Example 4A] yielded an IC50 of 93.9 nM.

`Cc1c(-c2ccnn2C)cc(C(=O)NCc2ccc(S(C)(=O)=NC#N)cc2)c(=O)n1-c1cccc(C(F)(F)F)c1` (racemic) [Example 3, N-[[4-(N-Cyano-S-methyl-sulfonimidoyl)phenyl]methyl]-6-methyl-5-(2-methylpyrazol-3-yl)-2-oxo-1-[3-(trifluoromethyl)phenyl]pyridine-3-carboxamide]: the IC50 came to 2.6 nM.

Molecule `Cc1c(-c2ccnn2C)cc(C(=O)NCc2ccc(S(C)(=O)=NS(C)(=O)=O)cc2)c(=O)n1-c1cccc(C(F)(F)F)c1` (stereo not shown) [Example 9.3] showed an IC50 of 12.6 nM.

For the molecule `Cc1c(-c2ccnn2C)nc(C(=O)NCc2ccc(S(C)(=O)=NC#N)cc2)c(=O)n1-c1cccc(C(F)(F)F)c1` (single isomer, unassigned) [Example 16, N-[[4-(N-Cyano-S-methyl-sulfonimidoyl)phenyl]methyl]-5-methyl-6-(2-methylpyrazol-3-yl)-3-oxo-4-[3-(trifluoromethyl)phenyl]pyrazine-2-carboxamide], inhibition was half-maximal at 11.1 nM (IC50).

`Cc1c(-c2ccnn2C)cc(C(=O)NCc2ccc(S(C)(=N)=O)cc2)c(=O)n1-c1cccc(C(F)(F)F)c1` (racemic) [Example 4, 6-Methyl-5-(2-methylpyrazol-3-yl)-N-[[4-(methylsulfonimidoyl)phenyl]methyl]-2-oxo-1-[3-(trifluoromethyl)phenyl]pyridine-3-carboxamide] came in with an IC50 of 173 nM.

`CN=S(=O)(c1ccc(CNC(=O)c2cc(-c3ccnn3C)c(C)n(-c3cccc(C(F)(F)F)c3)c2=O)cc1)N(C)C` (stereo not shown) [Example 1.1]: the IC50 came to 11.4 nM.

In the case of `Cc1c(-c2ccnn2C)cc(C(=O)NCc2ccc(S(C)(=O)=NC(N)=O)cc2)c(=O)n1-c1cccc(C(F)(F)F)c1` (stereo not shown) [Example 6, N-[[4-(N-Carbamoyl-S-methyl-sulfonimidoyl)phenyl]methyl]-6-methyl-5-(2-methyl-pyrazol-3-yl)-2-oxo-1-[3-(trifluoromethyl)phenyl]pyridine-3-carboxamide], half-maximal inhibition (IC50) was put at 45.8 nM.

For `Cc1c(-c2ccnn2C)cc(C(=O)NCc2ccc(S(C)(=O)=NC#N)cc2)c(=O)n1-c1cccc(C(F)(F)F)c1` (single isomer, unassigned) [Example 3B], the IC50 was found to be 2.3 nM.

`Cc1c(-c2ccnn2C)cc(C(=O)NCc2ccc(/S(C)=N/C#N)cc2)c(=O)n1-c1cccc(C(F)(F)F)c1` (stereo not shown) [Example 1, N-[[4-(N-Cyano-S-methyl-sulfinimidoyl)phenyl]methyl]-6-methyl-5-(2-methyl-pyrazol-3-yl)-2-oxo-1-[3-(trifluoromethyl)phenyl]pyridine-3-carboxamide] gave an IC50 of 1.2 nM.

`CN=S(C)(=N)c1ccc(CNC(=O)c2cc(-c3ccnn3C)c(C)n(-c3cccc(C(F)(F)F)c3)c2=O)cc1` (stereo not shown) [Example 15.1] came in with an IC50 of 88.7 nM.

Regarding `CN=S(C)(=O)c1ccc(CNC(=O)c2cc(-c3ccnn3C)c(C)n(-c3cccc(C(F)(F)F)c3)c2=O)cc1` (stereo not shown) [Example 11, N-[[4-(N,S-Dimethylsulfonimidoyl)phenyl]methyl]-6-methyl-5-(2-methylpyrazol-3-yl)-2-oxo-1-[3-(trifluoromethyl)phenyl]pyridine-3-carboxamide], the IC50 is 40.3 nM.

Consider `Cc1nc(N=S(C)(=O)c2ccc(CNC(=O)c3cc(-c4ccnn4C)c(C)n(-c4cccc(C(F)(F)F)c4)c3=O)cc2)oc1C` (stereo not shown) [Example 7, N-[[4-[N-(4,5-Dimethyloxazol-2-yl)-S-methyl-sulfonimidoyl]phenyl]methyl]-6-methyl-5-(2-methylpyrazol-3-yl)-2-oxo-1-[3-(trifluoromethyl)phenyl]pyridine-3-carboxamide], for which inhibition was half-maximal at 34.3 nM (IC50).

Molecule `Cc1c(-c2ccnn2C)cc(C(=O)NCc2ccc(S(C)(=O)=N[N+](=O)[O-])cc2)c(=O)n1-c1cccc(C(F)(F)F)c1` (stereo not shown) [Example 12, 6-Methyl-N-[[4-(S-methyl-N-nitro-sulfonimidoyl)phenyl]methyl]-5-(2-methylpyrazol-3-yl)-2-oxo-1-[3-(trifluoromethyl)phenyl]pyridine-3-carboxamide] gave an IC50 of 5 nM.

As for `CN=S(=O)(c1ccc(CNC(=O)c2cc(-c3ccnn3C)c(C)n(-c3cccc(C(F)(F)F)c3)c2=O)cc1)N1CCCCC1` (stereo not drawn) [Example 13, 6-Methyl-N-[[4-[N-methyl-S-(1-piperidyl)sulfonimidoyl]phenyl]methyl]-5-(2-methyl-pyrazol-3-yl)-2-oxo-1-[3-(trifluoromethyl)phenyl]pyridine-3-carboxamide], the IC50 stood at 28.4 nM.

With `COC(=O)N=S(C)(=O)c1ccc(CNC(=O)c2cc(-c3ccnn3C)c(C)n(-c3cccc(C(F)(F)F)c3)c2=O)cc1` (stereo not shown) [Example 9, Methyl N-[Methyl-[4-[[[6-methyl-5-(2-methylpyrazol-3-yl)-2-oxo-1-[3-(trifluoromethyl)phenyl]pyridine-3-carbonyl]amino]methyl]phenyl]-oxo-λ^6-sulfanylidene]-carbamate], the IC50 was 17.6 nM.

As to `CNC(=O)N=S(C)(=O)c1ccc(CNC(=O)c2cc(-c3ccnn3C)c(C)n(-c3cccc(C(F)(F)F)c3)c2=O)cc1` (stereo not shown) [Example 10, 6-Methyl-N-[[4-[S-methyl-N-(methylcarbamoyl)sulfonimidoyl]phenyl]methyl]-5-(2-methylpyrazol-3-yl)-2-oxo-1-[3-(trifluoromethyl)phenyl]pyridine-3-carboxamide], the IC50 worked out at 50 nM.

The molecule `Cc1c(-c2ccnn2C)cc(C(=O)NCc2ccc(S(C)(=O)=N/C(N)=N/O)cc2)c(=O)n1-c1cccc(C(F)(F)F)c1` (stereo not shown) [Example 8, N-[[4-[N—[N-Hydroxycarbamimidoyl]-S-methyl-sulfonimidoyl]phenyl]methyl]-6-methyl-5-(2-methylpyrazol-3-yl)-2-oxo-1-[3-(trifluoromethyl)phenyl]pyridine-3-carboxamide] gave an IC50 of 64.4 nM.

In turn, `CC(=O)N=S(C)(=O)c1ccc(CNC(=O)c2cc(-c3ccnn3C)c(C)n(-c3cccc(C(F)(F)F)c3)c2=O)cc1` (stereo not shown) [Example 9.1] returned an IC50 of 37 nM.

As to `CN=S(=O)(c1ccc(CNC(=O)c2cc(-c3ccnn3C)c(C)n(-c3cccc(C(F)(F)F)c3)c2=O)cc1)N(C)OC` (stereo not shown) [Example 1.3], the midpoint of inhibition, the IC50, lay at 12.5 nM.

The molecule `COCCN=S(C)(=N)c1ccc(CNC(=O)c2cc(-c3ccnn3C)c(C)n(-c3cccc(C(F)(F)F)c3)c2=O)cc1` (stereo not shown) [Example 15, N-[[4-[N-(2-Methoxyethyl)-S-methyl-sulfonodiimidoyl]phenyl]methyl]-6-methyl-5-(2-methylpyrazol-3-yl)-2-oxo-1-[3-(trifluoromethyl)phenyl]pyridine-3-carboxamide] gave an IC50 of 43.5 nM.

Turning to `Cc1c(-c2ccnn2C)cc(C(=O)NCc2ccc(S(C)(=O)=NC(=O)N3CCOCC3)cc2)c(=O)n1-c1cccc(C(F)(F)F)c1` (stereo not shown) [Example 9.2], half-maximal inhibition (IC50) was put at 72.7 nM.

In turn, `Cc1c(-c2ccnn2C)cc(C(=O)NCc2ccc(/S(C)=N/C(N)=O)cc2)c(=O)n1-c1cccc(C(F)(F)F)c1` (stereo not shown) [Example 5, N-[[4-(N-Carbamoyl-S-methyl-sulfinimidoyl)phenyl]methyl]-6-methyl-5-(2-methyl-pyrazol-3-yl)-2-oxo-1-[3-(trifluoromethyl)phenyl]pyridine-3-carboxamide] had an IC50 of 35.7 nM. This IC50 lies about 2-fold lower than the previous one.

As to `Cc1c(-c2ccnn2C)cc(C(=O)NCc2ccc(S(C)(=N)=NC#N)cc2)c(=O)n1-c1cccc(C(F)(F)F)c1` (stereo not shown) [Example 15.2], the IC50 came to 6.7 nM. This IC50 lies about 5.3-fold lower than the previous one.

The molecule `Cc1c(-c2ccnn2C)cc(C(=O)NCc2ccc(S(C)(=O)=NC#N)cc2)c(=O)n1-c1cccc(C(F)(F)F)c1` (single isomer, unassigned) [Example 3A] returned an IC50 of 4.5 nM.

`CN=S(=O)(NCc1ccccc1)c1ccc(CNC(=O)c2cc(-c3ccnn3C)c(C)n(-c3cccc(C(F)(F)F)c3)c2=O)cc1` (stereo not shown) [Example 1.2]: the IC50 stood at 14.4 nM.

In turn, `Cc1c(-c2ccnn2C)cc(C(=O)NCc2ccc(S(C)(=N)=O)cc2)c(=O)n1-c1cccc(C(F)(F)F)c1` (single isomer, unassigned) [Example 4B] returned an IC50 of 41.5 nM. This IC50 is about 2.9-fold higher than that of the molecule before.

`Cc1c(-c2ccnn2C)cc(C(=O)NCc2ccc(S(C)=N)cc2)c(=O)n1-c1cccc(C(F)(F)F)c1` (stereo not shown) [Example 2, 6-Methyl-5-(2-methylpyrazol-3-yl)-N-[[4-(methylsulfinimidoyl)phenyl]methyl]-2-oxo-1-[3-(trifluoromethyl)phenyl]pyridine-3-carboxamide]: the midpoint of inhibition, the IC50, lay at 42 nM.

Source of the values: patent US9221807B2, “Substituted pyridones and pyrazinones and their use as inhibitors of neutrophil elastase activity” (Boehringer Ingelheim International GmbH, priority 2014, dated 2015).
